Reference: patent US20220267260A1, “COMPOUNDS CONTAINING A SULFONIC GROUP AS KAT INHIBITORS” (Epizyme, Inc., priority 2016, published 2022)

Legend:
KAT5 = target: T1, KAT5 (Homo sapiens, UniProt Q92993); experiment: KAT5 enzyme inhibition assay (SAMDI mass spectrometry); type: biochemical; conditions: His-TEV-FL KAT5-Flag enzyme construct
T1 construct: His-TEV tag (N, cleaved yes); made in house

KAT6A = target: T2, KAT6A (Homo sapiens, UniProt Q92794); experiment: KAT6A enzyme inhibition assay (SAMDI mass spectrometry); type: biochemical; conditions: His-TEV-KAT6A 501-784 enzyme construct
T2 construct: His-TEV tag (N, cleaved yes); made in house
T2 sequence (Q92794 with tags, fused parts or gaps): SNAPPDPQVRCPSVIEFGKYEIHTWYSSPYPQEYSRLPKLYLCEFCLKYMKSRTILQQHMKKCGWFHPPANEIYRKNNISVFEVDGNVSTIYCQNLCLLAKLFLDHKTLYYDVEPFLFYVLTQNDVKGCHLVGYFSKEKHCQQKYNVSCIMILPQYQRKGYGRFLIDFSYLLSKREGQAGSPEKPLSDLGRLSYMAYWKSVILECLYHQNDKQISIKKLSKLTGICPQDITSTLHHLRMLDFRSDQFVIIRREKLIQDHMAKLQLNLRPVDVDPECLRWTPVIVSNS

T1 sequence (Q92993 with tags, fused parts or gaps): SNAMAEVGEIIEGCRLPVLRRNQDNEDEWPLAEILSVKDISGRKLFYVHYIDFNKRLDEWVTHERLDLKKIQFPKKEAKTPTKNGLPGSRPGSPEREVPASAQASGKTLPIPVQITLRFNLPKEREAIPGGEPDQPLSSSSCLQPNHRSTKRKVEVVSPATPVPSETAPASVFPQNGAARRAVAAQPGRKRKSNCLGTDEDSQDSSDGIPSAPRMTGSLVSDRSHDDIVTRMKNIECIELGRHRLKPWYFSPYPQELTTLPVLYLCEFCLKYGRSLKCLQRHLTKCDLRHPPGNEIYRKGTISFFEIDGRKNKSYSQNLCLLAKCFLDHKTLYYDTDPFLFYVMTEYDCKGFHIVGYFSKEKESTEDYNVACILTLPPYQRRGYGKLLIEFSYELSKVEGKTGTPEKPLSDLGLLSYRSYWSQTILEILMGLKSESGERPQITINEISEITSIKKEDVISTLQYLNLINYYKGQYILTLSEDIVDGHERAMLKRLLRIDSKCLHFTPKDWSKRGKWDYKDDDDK

IC50 (KAT5) | IC50 (KAT6A) | SMILES
> 100 µM | > 100 µM | Cc1cccc(-c2cc(Cl)c(F)c(C(=O)NNS(=O)(=O)CC3CCCNC3)c2)c1 (stereo not shown) [Compound I-514]
≤ 10 µM | > 100 µM | CC(=O)N1CCCC(CS(=O)(=O)NNC(=O)c2cc(-c3cccc(C)c3)cc(Cl)c2F)C1 (stereo not shown) [Compound I-515]
≤ 10 µM | > 100 µM | Cc1cccc(-c2cc(Cl)c(F)c(C(=O)NNS(=O)(=O)CC3CCN(C(=O)OC(C)(C)C)C3)c2)c1 (stereo not shown) [Compound I-516]
> 100 µM | > 100 µM | Cc1cccc(-c2cc(Cl)c(F)c(C(=O)NNS(=O)(=O)CC3CCNC3)c2)c1 (stereo not shown) [Compound I-517]
> 100 µM | > 100 µM | CCNC(=O)N1CCC(CS(=O)(=O)NNC(=O)c2cc(-c3cccc(C)c3)cc(Cl)c2F)C1 (stereo not shown) [Compound I-518]
≤ 10 µM | ≤ 10 µM | CCN(C)C(=O)N1CCC(CS(=O)(=O)NNC(=O)c2cc(-c3cccc(C)c3)cc(Cl)c2F)C1 (stereo not shown) [Compound I-519]
> 100 µM | > 100 µM | Cc1ccc(-c2csc(NS(=O)(=O)c3cccc(C(=O)O)c3)n2)cc1C [Compound I-520]
> 100 µM | > 100 µM | O=C(NNS(=O)(=O)c1cccc(-c2ccccc2)c1)c1ccccc1 [Compound I-521]
> 100 µM | > 100 µM | O=C(NNS(=O)(=O)c1cccc(-c2ccccc2)c1)C1CCCCC1 [Compound I-522]
10 to 50 µM | 10 to 50 µM | O=C(NNS(=O)(=O)c1cc(-c2ccccc2)cc(Cl)c1F)c1ccccc1 [Compound I-523]
50 to 100 µM | 10 to 50 µM | O=C(NNS(=O)(=O)c1cc(-c2ccccc2)cc(Cl)c1F)C1CCCCC1 [Compound I-524]
